From paper PMC10951960, “CGP7930 - An allosteric modulator of GABABRs, GABAARs and inwardly-rectifying potassium channels” (Neuropharmacology, 2023)
Like-named read-outs stand apart in the source and are kept apart here.

Tests used:
[1] = molecular target: T1, GABAB receptors (R1a and R2) (Mus musculus, UniProt Q80T41+Q9WV18); assay: GABA-activated K+ currents in GIRK cells (HEK cells stably expressing Kir3.1/3.2, transfected with GABAB R1a and R2), whole-cell patch clamp; assay type: cell-based, murine
T1 construct: expressed in transfected cells; host or cells: HEK-293 cells stably expressing Kir3.1/3.2 (GIRK cells)
T1 sequence (Q9WV18 20-960): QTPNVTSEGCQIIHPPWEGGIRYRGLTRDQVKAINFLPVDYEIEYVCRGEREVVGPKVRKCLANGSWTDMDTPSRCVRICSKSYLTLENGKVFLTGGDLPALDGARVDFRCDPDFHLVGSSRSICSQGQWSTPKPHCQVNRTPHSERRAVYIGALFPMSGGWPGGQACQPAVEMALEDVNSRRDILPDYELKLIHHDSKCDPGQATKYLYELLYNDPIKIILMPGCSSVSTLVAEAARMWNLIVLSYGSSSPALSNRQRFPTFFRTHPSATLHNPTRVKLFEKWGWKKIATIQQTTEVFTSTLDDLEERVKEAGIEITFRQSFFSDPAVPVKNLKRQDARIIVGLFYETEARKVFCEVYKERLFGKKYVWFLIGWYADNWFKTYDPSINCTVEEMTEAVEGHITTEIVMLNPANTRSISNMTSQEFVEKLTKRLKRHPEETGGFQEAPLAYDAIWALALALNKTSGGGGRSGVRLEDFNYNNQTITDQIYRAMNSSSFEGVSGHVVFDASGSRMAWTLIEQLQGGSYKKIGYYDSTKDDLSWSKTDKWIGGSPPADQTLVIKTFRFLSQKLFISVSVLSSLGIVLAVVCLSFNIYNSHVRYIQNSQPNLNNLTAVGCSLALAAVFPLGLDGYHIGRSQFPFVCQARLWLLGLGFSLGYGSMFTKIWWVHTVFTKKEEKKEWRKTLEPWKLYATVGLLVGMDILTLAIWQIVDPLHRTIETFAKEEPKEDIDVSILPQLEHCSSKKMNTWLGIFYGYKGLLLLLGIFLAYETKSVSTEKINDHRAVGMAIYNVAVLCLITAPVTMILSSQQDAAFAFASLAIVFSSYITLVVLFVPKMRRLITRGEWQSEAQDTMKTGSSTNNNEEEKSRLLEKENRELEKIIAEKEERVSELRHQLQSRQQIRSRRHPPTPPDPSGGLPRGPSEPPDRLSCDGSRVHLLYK
T1 sequence (Q80T41 41-940): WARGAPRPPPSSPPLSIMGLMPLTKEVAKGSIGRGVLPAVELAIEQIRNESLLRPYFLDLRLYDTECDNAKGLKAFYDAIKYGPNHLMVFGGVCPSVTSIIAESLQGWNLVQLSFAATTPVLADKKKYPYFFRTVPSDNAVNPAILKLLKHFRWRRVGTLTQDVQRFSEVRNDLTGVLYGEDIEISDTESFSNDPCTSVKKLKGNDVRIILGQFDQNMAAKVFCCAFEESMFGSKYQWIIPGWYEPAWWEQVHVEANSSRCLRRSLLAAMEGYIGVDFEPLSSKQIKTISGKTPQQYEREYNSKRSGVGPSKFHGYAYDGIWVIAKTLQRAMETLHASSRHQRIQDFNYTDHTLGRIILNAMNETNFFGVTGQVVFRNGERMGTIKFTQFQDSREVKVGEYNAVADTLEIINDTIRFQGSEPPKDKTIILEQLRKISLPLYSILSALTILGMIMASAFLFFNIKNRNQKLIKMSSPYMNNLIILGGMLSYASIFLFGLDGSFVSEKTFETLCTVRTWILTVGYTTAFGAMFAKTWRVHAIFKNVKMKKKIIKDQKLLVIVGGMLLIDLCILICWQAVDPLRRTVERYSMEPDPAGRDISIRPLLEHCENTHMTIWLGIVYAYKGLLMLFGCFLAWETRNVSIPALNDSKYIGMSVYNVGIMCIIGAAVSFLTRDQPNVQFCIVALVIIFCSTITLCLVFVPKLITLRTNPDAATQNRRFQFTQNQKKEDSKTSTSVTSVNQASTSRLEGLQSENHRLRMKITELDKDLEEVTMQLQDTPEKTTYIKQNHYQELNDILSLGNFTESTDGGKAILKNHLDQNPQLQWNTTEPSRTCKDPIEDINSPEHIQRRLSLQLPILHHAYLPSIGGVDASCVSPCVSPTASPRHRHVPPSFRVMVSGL
Description: (§1) CGP55845, and other drugs, were obtained from Merck (Sigma-Aldrich) unless otherwise stated.
(§2) All cell culture reagents were acquired from ThermoFisher unless otherwise stated. […] These cells are referred to as GIRK cells throughout the text and were transiently transfected with cDNAs for eGFP, GABAB R1a and R2 in a 1:1:5 ratio applied 1–2 h after cell plating.
Spontaneous inhibitory postsynaptic currents (sIPSCs) were recorded from cultured hippocampal neurons at 12–17 days in vitro (DIV). […] GABABR-activated K^+ currents in cultured neurons were recorded in the additional presence of 2 mM kynurenic acid and 20 μM picrotoxin.
(§3) Borosilicate glass electrodes (3–5 MΩ) were filled with a K^+-based internal solution for recording GIRK currents containing (mM): 120 KCl, 2 MgCl2, 11 EGTA, 30 KOH, 10 HEPES, 1 CaCl2, 1 GTP, 2 ATP, 14 creatine phosphate, pH 7.0. GABAAR currents and sIPSCs were recorded with a Cs-based internal solution containing (mM): 120 CsCl, 1 MgCl2, 11 EGTA, 30 KOH, 10 HEPES, 1 CaCl2, and 2 K2ATP; pH 7.2. […] Cells were held at −60 mV (sIPSCs) or −60/−70 mV (K^+ currents). Voltage clamp recordings were undertaken after optimising series resistance (Rs, <10 MΩ) and compensating for the whole-cell membrane capacitance. Membrane currents were filtered at 5 kHz (−3 dB, 6th pole Bessel, 36 dB/octave) and stored for analysis with Clampex 10.
(§4) Concentration-response curves were generated by measuring the current (I) for each ligand concentration and normalising to the maximal current response (Imax).
These cells were bathed in high external K^+ concentration Krebs to reverse the direction of net K^+ current flow.

[2] = tested on: native GABAARs in hippocampal neurons; assay: muscimol-activated and CGP7930-activated GABAAR currents in hippocampal neurons, Cs+-based internal solution; assay type: cell-based, rat
Description: (§5) Briefly, single cells derived from dissected hippocampi were seeded onto glass coverslips coated with poly-D-lysine in a plating medium containing minimum essential media with 5% v/v heat-inactivated FCS, 5% v/v heat-inactivated horse serum, penicillin-G/streptomycin (100 U/100 μg/ml), 2 mM L-glutamine, and 20 mM glucose. Two hr after plating the media was changed to a Neurobasal-A based maintenance media supplemented with 1% v/v B-27, penicillin-G/streptomycin (100 U/100 μg/ml), 0.5% v/v Glutamax and 35 mM glucose.
(§6) Spontaneous inhibitory postsynaptic currents (sIPSCs) were recorded from cultured hippocampal neurons at 12–17 days in vitro (DIV). […] For recording K^+ currents in GIRK cells and neurons, the bath solution was switched to a high K^+ solution containing 25 mM KCl and reduced NaCl (120 mM), to shift the equilibrium potential for K^+ from approximately −90 to −47 mV, thus reversing the direction of K^+ current flux to net inward. GABABR-activated K^+ currents in cultured neurons were recorded in the additional presence of 2 mM kynurenic acid and 20 μM picrotoxin.
as §3, §4

α1β2γ2L GABAAR = molecular target: T2, α1β2γ2L GABAAR (Mus musculus, UniProt P22723+P62812+P63137); assay: whole-cell currents of recombinant GABAA receptors in HEK-293 cells (α1β2γ2L); assay type: cell-based, murine
T2 construct: expressed in transfected cells; host or cells: HEK-293T
T2 sequence (P62812 28-455): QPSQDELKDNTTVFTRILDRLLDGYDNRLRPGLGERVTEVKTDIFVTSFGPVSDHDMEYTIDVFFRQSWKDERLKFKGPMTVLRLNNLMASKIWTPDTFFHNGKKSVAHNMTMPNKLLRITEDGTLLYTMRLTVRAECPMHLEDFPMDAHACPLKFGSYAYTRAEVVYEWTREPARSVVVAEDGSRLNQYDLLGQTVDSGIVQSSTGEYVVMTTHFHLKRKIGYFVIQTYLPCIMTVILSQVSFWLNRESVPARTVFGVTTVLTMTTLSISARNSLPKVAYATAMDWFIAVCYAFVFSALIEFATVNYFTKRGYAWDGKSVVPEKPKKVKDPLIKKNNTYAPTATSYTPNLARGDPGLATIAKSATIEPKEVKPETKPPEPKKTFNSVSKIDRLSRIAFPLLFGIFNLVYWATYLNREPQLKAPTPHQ
T2 sequence (P63137 25-512 limits assumed): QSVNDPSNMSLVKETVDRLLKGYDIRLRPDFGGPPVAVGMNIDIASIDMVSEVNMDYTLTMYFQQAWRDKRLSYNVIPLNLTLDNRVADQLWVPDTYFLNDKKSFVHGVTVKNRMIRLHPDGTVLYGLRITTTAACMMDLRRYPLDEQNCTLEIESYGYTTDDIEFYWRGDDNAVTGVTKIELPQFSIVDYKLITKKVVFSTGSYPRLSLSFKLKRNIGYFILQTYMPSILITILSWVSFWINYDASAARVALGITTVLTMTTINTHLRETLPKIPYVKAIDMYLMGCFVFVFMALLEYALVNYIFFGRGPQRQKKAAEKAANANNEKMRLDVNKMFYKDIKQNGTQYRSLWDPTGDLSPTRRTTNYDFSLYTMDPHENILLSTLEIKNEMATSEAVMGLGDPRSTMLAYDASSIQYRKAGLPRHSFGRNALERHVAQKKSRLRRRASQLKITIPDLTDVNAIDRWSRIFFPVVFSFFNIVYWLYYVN
T2 sequence (P22723 39-474): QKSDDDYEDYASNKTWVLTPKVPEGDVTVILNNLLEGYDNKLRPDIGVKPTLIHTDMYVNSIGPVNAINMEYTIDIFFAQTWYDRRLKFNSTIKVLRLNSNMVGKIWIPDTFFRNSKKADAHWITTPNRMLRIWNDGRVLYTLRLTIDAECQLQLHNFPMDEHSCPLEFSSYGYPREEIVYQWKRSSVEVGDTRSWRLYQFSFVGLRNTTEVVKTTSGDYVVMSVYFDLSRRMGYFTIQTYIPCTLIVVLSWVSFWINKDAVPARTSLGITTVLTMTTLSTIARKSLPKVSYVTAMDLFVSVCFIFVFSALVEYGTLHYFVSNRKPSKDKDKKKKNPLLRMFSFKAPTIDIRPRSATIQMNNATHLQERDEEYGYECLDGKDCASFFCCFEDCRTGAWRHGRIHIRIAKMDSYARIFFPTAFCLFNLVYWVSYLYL
Description: as §1, §2, §6, §3, §4
(§7) We explored the ability of CGP7930 to modulate different recombinant GABAARs expressed in HEK-293 cells to avoid confounds arising from heterogeneous receptor subtypes in neurons.

α4β3δ GABAAR = molecular target: T3, α4β3δ GABAAR (Mus musculus, UniProt P22933+P63080+Q9D6F4); assay: whole-cell currents of recombinant GABAA receptors in HEK-293 cells (α4β3δ); assay type: cell-based, murine
T3 construct: expressed in transfected cells; host or cells: HEK-293T
T3 sequence (Q9D6F4 36-552): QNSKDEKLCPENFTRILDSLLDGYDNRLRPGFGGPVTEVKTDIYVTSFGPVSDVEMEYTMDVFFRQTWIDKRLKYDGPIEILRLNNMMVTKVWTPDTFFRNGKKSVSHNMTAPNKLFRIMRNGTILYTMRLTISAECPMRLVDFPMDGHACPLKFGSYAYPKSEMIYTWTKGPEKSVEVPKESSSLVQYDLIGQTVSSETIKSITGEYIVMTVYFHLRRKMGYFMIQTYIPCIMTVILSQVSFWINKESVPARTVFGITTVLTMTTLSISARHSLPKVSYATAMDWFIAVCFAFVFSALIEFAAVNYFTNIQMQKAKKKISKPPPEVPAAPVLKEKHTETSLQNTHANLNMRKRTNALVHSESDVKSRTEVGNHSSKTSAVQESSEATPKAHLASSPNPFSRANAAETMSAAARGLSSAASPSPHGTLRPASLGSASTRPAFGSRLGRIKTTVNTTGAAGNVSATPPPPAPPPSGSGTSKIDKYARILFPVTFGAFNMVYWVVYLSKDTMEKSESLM
T3 sequence (P63080 26-473): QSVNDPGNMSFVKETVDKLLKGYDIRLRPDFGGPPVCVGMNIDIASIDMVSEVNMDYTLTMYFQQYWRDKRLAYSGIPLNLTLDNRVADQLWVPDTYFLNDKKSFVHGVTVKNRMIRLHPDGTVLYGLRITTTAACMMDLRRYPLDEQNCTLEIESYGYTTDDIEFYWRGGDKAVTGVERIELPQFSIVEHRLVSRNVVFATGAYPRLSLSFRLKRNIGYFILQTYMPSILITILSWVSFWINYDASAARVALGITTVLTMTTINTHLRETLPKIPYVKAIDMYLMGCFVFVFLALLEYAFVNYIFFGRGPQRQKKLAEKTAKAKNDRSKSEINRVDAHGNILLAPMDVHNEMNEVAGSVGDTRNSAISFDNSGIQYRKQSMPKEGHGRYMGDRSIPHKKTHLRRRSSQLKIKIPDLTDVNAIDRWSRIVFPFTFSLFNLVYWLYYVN
T3 sequence (P22933 17-449 limits assumed): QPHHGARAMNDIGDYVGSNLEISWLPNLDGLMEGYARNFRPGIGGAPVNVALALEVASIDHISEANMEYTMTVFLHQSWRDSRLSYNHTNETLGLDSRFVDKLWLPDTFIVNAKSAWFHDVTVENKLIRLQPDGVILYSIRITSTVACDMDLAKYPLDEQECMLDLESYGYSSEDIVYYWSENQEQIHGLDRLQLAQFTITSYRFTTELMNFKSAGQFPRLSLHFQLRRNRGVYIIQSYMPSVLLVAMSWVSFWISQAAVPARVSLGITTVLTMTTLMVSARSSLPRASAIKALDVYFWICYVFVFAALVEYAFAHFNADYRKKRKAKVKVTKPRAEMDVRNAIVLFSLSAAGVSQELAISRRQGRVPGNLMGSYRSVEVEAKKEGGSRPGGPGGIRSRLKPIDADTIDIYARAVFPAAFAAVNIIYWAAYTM
Description: as §1, §2, §6, §3, §4, §7

[3] = tested on: GABAAR-mediated sIPSCs in hippocampal neurons; assay: phasic inhibition: sIPSCs in cultured hippocampal neurons in the presence of CGP55845 (1 μM); assay type: cell-based, rat; conditions: mean ± SEM
Description: as §5, §6, §3
sIPSCs were recorded at room temperature (20–23 °C) and detected using WinEDR and WinWCP (Strathclyde Electrophysiology Software UK), and frequency was calculated for 60 s recording epochs. For sIPSC amplitudes, several hundred events were recorded per condition and analysed as an average amplitude per cell.
For kinetic analysis, individual uncontaminated sIPSCs were isolated and the average 10–90% rise time and exponential decay times were measured from the mean sIPSC waveform. Weighted decay times are reported encompassing mono- and bi-exponentially decaying events according to the equation:τw = (A1 *τ1 + A2 *τ2) / (A1 + A2)where τ1 and τ2 are exponential decay time constants, and A1 and A2 are the relative amplitude contributions of τ1 and τ2, respectively.

[4] = tested on: GABAAR-mediated tonic inhibition in hippocampal neurons; assay: tonic inhibition: baseline holding current and RMS noise in cultured hippocampal neurons; assay type: cell-based, rat
Description: as §5, §6, §3
For tonic inhibition, to determine the average holding currents, a 30 s continuous holding current recording was sampled every 1 s, discarding epochs that coincided with sIPSCs. Any effect of CGP7930 or bicuculline on the holding current was defined by subtracting the average holding currents in control and during drug application. The baseline root-mean-square current variance (RMS) was calculated before and during drug treatment. This was estimated from a continuous (20 s) current recording, sampled every 100 ms. The median current was calculated every 5 s and values more than twice the standard deviation from the median (usually due to IPSCs) were eliminated. All drugs were applied using a U-tube rapid drug application system, or more slowly via bath perfusion.
We assessed the effect of CGP7930 on tonic inhibition in hippocampal cultured neurons.

CC(C)(CO)Cc1cc(C(C)(C)C)c(O)c(C(C)(C)C)c1 [CGP7930, 3-(3′,5′-Di-tert-butyl-4′-hydroxy) phenyl-2,2-dimethylpropanol]
direct receptor activation of GABABRs ([1]; GIRK cells, CGP7930 pre-applied alone): no indication of direct receptor activation | potentiation reached, of the maximum GABA current activation of GABABRs ([1]; GIRK cells, ∼EC20 GABA): ~30% | concentration at which GABABR signalling is inhibited ([1]; highlights statement): > 3 µM | EC50 ([1]; read-out: EC50 for CGP7930 modulating EC20 GABAB receptor activated currents): 11.1 ± 7 µM | IC50 ([1]; read-out: IC50 for CGP7930 modulating EC20 GABAB receptor activated currents): 10.5 ± 2 µM | maximal direct activation compared to maximal GABAAR activation by saturating muscimol ([2]; hippocampal neurons, n = 8): 42.1 ± 1.8% | EC50 ([2]; hippocampal neurons, n = 8, read-out: EC50 for direct activation (CGP7930 alone)): 5.2 ± 0.1 µM | EC50 ([2]; ∼EC10-15 muscimol (0.5 μM), direct effect subtracted, n = 10, read-out: EC50 for CGP7930 potentiation of muscimol response): 2 ± 1.1 µM | IC50 ([2]; ∼EC10-15 muscimol (0.5 μM), direct effect subtracted, n = 10, read-out: IC50 of bell-shaped muscimol potentiation curve): 7.9 ± 1.8 µM | IC50 (α1β2γ2L GABAAR): 6.6 ± 2.3 µM | EC50 (α1β2γ2L GABAAR; EC50 of GABA EC20 modulation curve, α1β2γ2L, ∼EC20 GABA, direct effects subtracted, n = 5): 1.7 ± 1.3 µM | EC50 (α1β2γ2L GABAAR; α1β2γ2L (αβγ), read-out: EC50 for direct activation by CGP7930 alone): 9.3 ± 0.7 µM | threshold for direct activation (α1β2γ2L GABAAR; α1β2γ2L, CGP7930 alone): 1 to 3 µM | concentration at which clear direct activation became evident (α1β2γ2L GABAAR; α1β2γ2L, pre-application): 3 to 10 µM | threshold for potentiation of the GABA current (α1β2γ2L GABAAR; α1β2γ2L, pre-application): 1 µM | IC50 (α4β3δ GABAAR): 19.6 ± 13.1 µM | EC50 (α4β3δ GABAAR; EC50 of GABA EC20 modulation curve, α4β3δ, ∼EC20 GABA, n = 7): 1 ± 0.3 µM | EC50 (α4β3δ GABAAR; α4β3δ (αβδ), read-out: EC50 for direct activation by CGP7930 alone): 13.1 ± 1.4 µM | threshold for direct activation (α4β3δ GABAAR; α4β3δ, CGP7930 alone): 1 to 3 µM | sIPSC Amplitude ([3]; 100 nM): −70.0 ± 8.9 (7) pA | sIPSC Decay τ (weighted decay time) ([3]; 100 nM): 61.9 ± 7.2 (7) ms | sIPSC Frequency ([3]; 100 nM): 3.28 ± 0.62 (8) Hz | sIPSC Rise time (10–90%) ([3]; 100 nM): 2.5 ± 0.20 (9) ms | sIPSC Amplitude ([3]; 500 nM): −73.9 ± 8.8 (7) pA | sIPSC Decay τ (weighted decay time) ([3]; 500 nM): 100.8 ± 11 (7) ms | sIPSC Frequency ([3]; 500 nM): 1.53 ± 0.32 (8) Hz | sIPSC Rise time (10–90%) ([3]; 500 nM): 3.2 ± 0.39 (9) ms | sIPSC Amplitude ([3]; 1 μM): −124.6 ± 37.7 (7) pA | sIPSC Decay τ (weighted decay time) ([3]; 1 μM): 205.5 ± 117 (7) ms | sIPSC Frequency ([3]; 1 μM): 0.38 ± 0.07 (8) Hz | sIPSC Rise time (10–90%) ([3]; 1 μM): 16.1 ± 5.2 (9) ms | Membrane current RMS noise ([4]; 100 nM): 6.4 ± 0.4 (9) pA | Membrane current RMS noise ([4]; 500 nM): 8.6 ± 0.9 (9) pA | Tonic currents (change in baseline holding current) ([4]; 500 nM to 1 μM): −441.6 ± 124.7 (9) pA | Membrane current RMS noise ([4]; 1 μM): 12.7 ± 1.7 (9) pA | Membrane current RMS noise ([4]; 1 μM + Bic (50 μM bicuculline)): 5.7 ± 0.5 (9) pA | Tonic currents (change in baseline holding current) ([4]; 1 μM CGP7930 to 50 μM bicuculline (Bic)): 372.0 ± 88.5 (9) pA | Tonic currents (change in baseline holding current) ([4]; 100–500 nM): −115.6 ± 37.8 (9) pA | Tonic currents (change in baseline holding current) ([4]; Control to 100 nM): −21.41 ± 5.4 (9) pA
